From ChEMBL document CHEMBL5252542, “Discovery and Optimization of 5-Amino-1,2,3-triazole-4-carboxamide Series against Trypanosoma cruzi” (J Med Chem, 2017) come the findings set out here.

For series [1] the following is noted: buffer, pH 7.4.
Series [2] is described as follows: Drug metabolism in po dosed NMRI mouse plasma assessed as release of 3-methoxyaniline. It is filed as ADME, organism-based. Conditions: in vivo.
Series [3] is described as follows: Drug metabolism in mouse plasma assessed as release of 3-methoxyaniline measured after 5 hrs. It is filed as ADME, cell-free.
The conditions of series [4]: mouse, in vivo, po, 10 mg/kg, 8 h.
The conditions of series [5]: mouse, in vivo, po, 10 mg/kg, 24 h.
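For logD in this document: logD at pH 7.4 derived from a chromatographic hydrophobicity index measured by reversed-phase HPLC.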

`Nc1c(C(=O)Nc2ccccc2)nnn1Cc1ccc(CN2CCOCC2)cc1`: the pH-dependent lipophilicity (logD) in series [1] stood at 2.

Turning to `COc1cccc(NC(=O)c2nnn(Cc3ccncc3)c2N)c1`, the logD in series [1] was determined as 1.4.

In the case of `COc1cccc(NC(=O)c2nnn(Cc3ccc(CN4CCOCC4)cc3)c2N)c1`, the Drug metabolism entry in series [2] and in series [3] was “Metabolite_Notdetected” in each case.

In series [1], `COc1cccc(NC(=O)c2nnn(Cc3ccc(C#N)cc3)c2N)c1` yielded a log distribution coefficient (logD) of 2.3.

As to `COc1cccc(NC(=O)c2nnn(C(C)c3ccc(C(C)(C)C)cc3)c2N)c1` (stereo not given), the logD in series [1] came out at 3.9.

In series [1], `Nc1c(-c2nc(C3CCOCC3)no2)nnn1Cc1ccc(CN2CCOCC2)cc1` returned a logD of 1.3.

As for `COc1cccc(NC(=O)c2nnn(Cc3ccc(CN4CCOCC4)cc3)c2N)c1F`, in series [1], the logD is listed as 2.1.

The molecule `COc1cccc(NC(=O)c2nnn(CC3CCN(C(C)=O)CC3)c2N)c1` came in with a pH-dependent lipophilicity (logD) in series [1] of 1.2.

In the case of `COc1ccccc1-c1noc(-c2nnn(Cc3ccc(CN4CCOCC4)cc3)c2N)n1`, the logD in series [1] is listed as 2.1.

Molecule `COc1cccc(NC(=O)c2nnn(Cc3ccc(C(C)C)cc3)c2N)c1` registered a logD in series [1] of 3.4. This molecule also showed an AUC in series [4] of 3200 ng·min/mL. This molecule returned a peak concentration (Cmax) in series [5] of 17 ng/mL.

In series [1], `COc1cccc(NC(=O)c2nnn(CC3CCNCC3)c2N)c1` came in with a logD of 0.6.

`COc1cccc(NC(=O)c2nnn(Cc3ccc(C4CC4)cc3)c2N)c1` came in with a logD in series [1] of 3.2.

In series [1], `COc1cc(NC(=O)c2nnn(Cc3ccc(CN4CCOCC4)cc3)c2N)nc(OC)n1` came in with a logD of 2.1. The exposure (AUC) in series [4] stood at 300000 ng·min/mL. The Cmax in series [5] was 1300 ng/mL.

For `COc1cccc(NC(=O)c2nnn(Cc3ccccc3)c2N)c1`, in series [1], the logD was determined as 2.6.

As to `COc1nnccc1-c1noc(-c2nnn(Cc3ccc(CN4CCOCC4)cc3)c2N)n1`, the logD in series [1] came to 1.

In series [1], `COc1cccc(NC(=O)c2nnn(CC3CCN(C(=O)OC(C)(C)C)CC3)c2N)c1` came in with a logD of 2.9.

The molecule `COc1cccc(NC(=O)c2nnn(Cc3ccc(OC(F)(F)F)cc3)c2N)c1` yielded a log distribution coefficient (logD) in series [1] of 3.6. Further, the AUC in series [4] turned out to be 2300 ng·min/mL. In series [5], this molecule gave a maximum concentration (Cmax) of 13 ng/mL.

As for `Cc1noc(C)c1-c1noc(-c2nnn(Cc3ccc(CN4CCOCC4)cc3)c2N)n1`, in series [1], the logD is on record as 2.1.

Consider `COc1cccc(NC(=O)c2nnn(Cc3ccc(-n4cccn4)cc3)c2N)c1`, for which, in series [1], the pH-dependent lipophilicity (logD) is recorded as 2.4.

`COc1cc(NC(=O)c2nnn(Cc3ccc(CN4CCOCC4)cc3)c2N)ccc1F`: in series [1], the log distribution coefficient (logD) is reported as 2.1.

For `COc1cccc(NC(=O)c2nnn(Cc3ccc([S+](C)[O-])cc3)c2N)c1` (stereo not given), in series [1], the logD was found to be 1.3.

Consider `COc1cc(NC(=O)c2nnn(Cc3ccc(CN4CCOCC4)cc3)c2N)cc(OC)c1`, for which, in series [1], the logD is given as 2.2. In series [4], this molecule had an AUC of 370000 ng·min/mL. Besides, the Cmax in series [5] was 1600 ng/mL.

In series [1], `Cc1cccc(NC(=O)c2nnn(Cc3ccc(CN4CCOCC4)cc3)c2N)c1` displayed a logD of 2.

In turn, `Nc1c(-c2nc(-c3ccccc3)no2)nnn1Cc1ccc(CN2CCOCC2)cc1` registered a log distribution coefficient (logD) in series [1] of 2.6.

The molecule `COc1cnccc1-c1noc(-c2nnn(Cc3ccc(CN4CCOCC4)cc3)c2N)n1` returned a logD in series [1] of 1.1.

As for `COc1ccnc(NC(=O)c2nnn(Cc3ccc(CN4CCOCC4)cc3)c2N)c1`, the pH-dependent lipophilicity (logD) in series [1] was found to be 2.

Turning to `COc1ncccc1-c1noc(-c2nnn(Cc3ccc(CN4CCOCC4)cc3)c2N)n1`, the logD in series [1] is 1.7. In series [4], this molecule gave an area under the curve (AUC) of 190000 ng·min/mL. This molecule displayed a Cmax in series [5] of 1300 ng/mL.

In series [1], `COC1CCCC(NC(=O)c2nnn(Cc3ccc(CN4CCOCC4)cc3)c2N)C1` (stereo not given) gave a log distribution coefficient (logD) of 2.

In turn, `Nc1c(-c2nc(C3CCC(O)CC3)no2)nnn1Cc1ccc(CN2CCOCC2)cc1` (stereo not given) registered a logD in series [1] of 0.9.

Consider `COc1cccc(NC(=O)c2nnn(Cc3cc(C)on3)c2N)c1`, for which the log distribution coefficient (logD) in series [1] is given as 2.

In turn, `COc1cccc(N(C)C(=O)c2nnn(Cc3ccc(CN4CCOCC4)cc3)c2N)c1` returned a logD in series [1] of 2.

`COc1cccnc1-c1noc(-c2nnn(Cc3ccc(CN4CCOCC4)cc3)c2N)n1`: the logD in series [1] was 1.

As for `COc1cc(F)cc(NC(=O)c2nnn(Cc3ccc(CN4CCOCC4)cc3)c2N)c1`, the logD in series [1] is 2.4.

`Nc1c(C(=O)NC23CC4CC(CC(C4)C2)C3)nnn1Cc1ccc(CN2CCOCC2)cc1` had a logD in series [1] of 2.
